Test results taken from paper PMC3927586, “Protein kinase C-delta inactivation inhibits the proliferation and survival of cancer stem cells in culture and in vivo” (BMC Cancer, 2014).
Values joined by “and” are separate entries in the source; they are usually repeats but may differ in a detail not shown here. Equal values may be shown once. Read-outs that look alike come from different tables or passages of the source.

What was measured:
DU145 = assay: Tumor spheroid growth, DU145 prostate cancer; type: cell-based, human; details: p < 0.001
MCF7 cells = assay: Cell proliferation (MTT) of adherent MCF7 cells; type: cell-based, human; details: for concentration at which effect on cell number reached significance: MCF7, MTT, 24 hr, p ≤ 0.02; for concentration required to repress growth by more than 80%: MCF7 adherent population, MTT
Procedure: (§1) Cell proliferation was assessed using an MTT [3-(4,5-dimethylthiazol-2-yl)-2,5-diphenyltetrazolium bromide] assay (Roche, Mannheim, Germany). The number of viable cells growing in a single well on a 96-well microtiter plate was estimated by adding 10 μl of MTT solution (5 mg/ml in phosphate-buffered saline [PBS]). After 4 h of incubation at 37°C, the stain was diluted with 100 μl of dimethyl sulfoxide. The optical densities were quantified at a test wavelength of 570 nm and a reference wavelength of 690 nm on a multiwell spectrophotometer. In some assays, MTS was used as substrate (Promega, Madison, WI), and the absorbance of the product was monitored at 490 nm. Cell enumeration was carried out using a hemocytometer, and viable cells identified by trypan blue exclusion.
Figure 4 Effects of PKCδ inhibitors on human tumor cell spheroid formation. (A) Hs578T and MCF7 were plated under adherent or non-adherent conditions. Tumor spheroids and adherent cells were collected at 96 hr, stained for CD24 and CD44, and analyzed by flow cytometry. (B) Hs578T, MCF7, breast cancer stem cells (BCSC) and pancreatic cancer stem cells (PCSC) were plated in tumor spheroid media, in the presence of rottlerin, BJE6-106, or DMSO (Control). Tumor spheroids were enumerated at 96 hr, and normalized to the number of spheroids in the control cultures (assigned an arbitrary value of 100%). p values for comparison between vehicle and rottlerin or BJE6-106 effects were significant (p≤0.001). Photographs are of representative areas of the culture plates. (C) MCF7 cells were exposed BJE6-106 or to rottlerin at the indicated concentrations. The corresponding equivalent volume of solvent (DMSO) was used as a vehicle control (Vehicle). After 24, 48 and 72 hr of exposure, cell mass was evaluated by MTT assay. Control values were normalized to 100%. p values for comparison between vehicle and rottlerin effects on cell number at 24 hr reached significance at 5 μM, and for BJE6-106 at 0.5 μM (p ≤ 0.02), and were significant for all concentrations tested at 48 and 72 hr time points. (D) Hs578T cells were exposed to vehicle or BJE6-106 (1 μM) for 6, 12, 24, 48 or 96 hr. Viable cells were enumerated and re-plated in media without BJE6-206, and spheroid numbers were quantitated 96 hr later. p values for comparison between vehicle and BJE6-106 effects on spheroid number were significant after 6 hr of exposure (p≤0.02), and remained significant at all time points thereafter. Error bars represent SEM.

MCF 10C cells = assay: Cell proliferation (MTT) of transformed breast epithelial cells; type: cell-based, human; details: for IC50: Homo sapiens, Epithelial cell, 72 hr, read-out: IC50 for the MCF 10C derivative; for concentration with significant effect on MCF 10C cells: as early as 24 hr
Procedure: as §1
Figure 5 Effects of PKCδ inhibitors on growth and spheroid formation in non-transformed and transformed human breast epithelial cells. MCF 10A cells and cells from the derived tumorigenic line MCF 10C (also called M3), were grown to 80% confluence in 96-well plates and then exposed to rottlerin at concentrations ranging from 1 to 20 μM (A) or to BJE6-106 at concentrations ranging from 0.1 to 20 μM (B). The corresponding equivalent volume of solvent (DMSO) was used as a vehicle control (Vehicle). After 24, 48 and 72 hr of exposure, cell mass was evaluated by MTT assay. Control (vehicle) values were normalized to 100%. Error bars represent SEM. p values for comparison between vehicle and PKCδ inhibitors on MCF 10A cell number only reached significance (p < 0.05) at 48 hr at 20 μM for rottlerin, and at 1 μM for BJE6-106. In contrast, significant effects of the inhibitors on the MCF 10C cells were observed as early as 24 hr for rottlerin (at 5 μM) and for BJE6-106 (at 0.1 μM). (C) MCF 10A and MCF 10C cells were plated at 10,000 cells per well in tumor spheroid media, and spheroid formation was assessed at days 10 and 21. Representative photographs are shown. (D) MCF 10C cells were plated at 10,000 cells per well in tumor spheroid media, in the presence of rottlerin (5 μM), or BJE6-106 (1 μM or 5 μM), or DMSO vehicle (Control). Tumor spheroids were enumerated at 10 days. Representative photographs are shown. (E) Spheroid numbers were normalized to the number of spheroids in the control cultures (assigned an arbitrary value of 100%) and plotted. Error bars represent SEM. p values for comparison between vehicle and rottlerin or BJE6-106 effects on spheroid number were significant (p < 0.001).

MiaPaCa2 = assay: Tumor spheroid growth, MiaPaCa2 pancreatic cancer; type: cell-based, human; details: p < 0.001
recombinant PKCδ = molecular target: T1, recombinant PKCδ (Homo sapiens, UniProt Q05655); assay: PKC kinase activity assay (Z-lyte), PKCδ; type: biochemical; details: for PKCδ/PKCα Selectivity ratio: PKCδ versus PKCα in vitro
T1 construct: purchased Invitrogen
Procedure: Assays were carried out using recombinant PKCδ or PKCα, (Invitrogen) and the Z-lyte Kinase Assays (Invitrogen) with a “PKC-kinase-specific” peptide substrate. FRET interactions produce a change in fluorescence (ex455/ex520) upon phosphorylation. The kit was used according to the manufacturer’s instructions.

MCF7 spheroids = assay: Tumor spheroid formation, MCF7; type: cell-based; details: Homo sapiens, 96 hr, read-out: inhibition of growth of MCF7 spheroids
Procedure: Tumor self-renewing and anchorage-independent spheroids were obtained by culturing breast cancer cells MCF7, Hs587T and MDA231; melanoma cells SBcl2 and FM6; human breast cancer stem cells and pancreatic cancer stem cells in stem cell-selective conditions according to the manufacturer’s instructions (StemCell Technologies, Tukwila, WA). Briefly, cancer and cancer stem cells were propagated in 6-well ultra-low adherent plates (Corning) in Complete MammoCult Medium (Human) by adding 50 mL of MammoCult Proliferation Supplements to 450 mL of MammoCult Basal Medium (StemCell Technologies). The following were added to obtain Complete MammoCult Medium: 4 ug/mL Heparin (StemCell Technologies), 0.48 μg/mL hydrocortisone (StemCell Technologies), 200 U penicillin/ml; and 200 μg streptomycin/ml (Invitrogen).
Figure 4 Effects of PKCδ inhibitors on human tumor cell spheroid formation. […] Tumor spheroids and adherent cells were collected at 96 hr, stained for CD24 and CD44, and analyzed by flow cytometry. […] After 24, 48 and 72 hr of exposure, cell mass was evaluated by MTT assay. […] Viable cells were enumerated and re-plated in media without BJE6-206, and spheroid numbers were quantitated 96 hr later. p values for comparison between vehicle and BJE6-106 effects on spheroid number were significant after 6 hr of exposure (p≤0.02), and remained significant at all time points thereafter. […]

Panc1 = assay: Tumor spheroid growth, Panc1 pancreatic cancer; type: cell-based, human; details: p < 0.001
[1] = in vitro kinase assay, read-out: PKCδ IC50

T1 sequence (Q05655 whole entry): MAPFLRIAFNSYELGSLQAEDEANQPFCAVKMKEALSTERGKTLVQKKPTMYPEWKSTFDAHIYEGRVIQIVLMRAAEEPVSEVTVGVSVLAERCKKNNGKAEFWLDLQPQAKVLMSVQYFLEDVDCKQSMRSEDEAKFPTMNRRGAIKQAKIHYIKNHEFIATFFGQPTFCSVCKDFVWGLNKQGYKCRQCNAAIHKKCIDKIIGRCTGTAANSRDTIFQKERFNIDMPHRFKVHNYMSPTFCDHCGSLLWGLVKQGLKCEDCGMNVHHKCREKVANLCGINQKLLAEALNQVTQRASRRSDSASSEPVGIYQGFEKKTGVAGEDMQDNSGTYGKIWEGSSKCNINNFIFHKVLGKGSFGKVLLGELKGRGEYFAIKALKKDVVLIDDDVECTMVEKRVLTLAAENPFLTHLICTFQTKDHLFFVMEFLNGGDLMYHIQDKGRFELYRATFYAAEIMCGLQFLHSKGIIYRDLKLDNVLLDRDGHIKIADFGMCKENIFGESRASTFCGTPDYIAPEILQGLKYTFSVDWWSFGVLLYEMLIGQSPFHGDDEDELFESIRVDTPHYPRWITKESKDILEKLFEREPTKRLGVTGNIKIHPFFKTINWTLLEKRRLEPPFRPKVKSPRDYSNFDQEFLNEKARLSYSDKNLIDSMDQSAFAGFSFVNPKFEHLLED

PKCδ/PKCα Selectivity ratio (recombinant PKCδ)	PKCδ/PKCα Selectivity ratio (recombinant PKCδ; listed as 3)	Compound	inhibition of tumor spheroid growth, DU145 (DU145; BJE6-106 at 0.5-1.0 μM)	concentration at which effect on cell number reached significance (MCF7 cells)	concentration required to repress growth by more than 80% (MCF7 cells)	IC50 (MCF 10C cells)	concentration with significant effect on MCF 10C cells (MCF 10C cells)	inhibition of tumor spheroid growth, MiaPaCa2 (MiaPaCa2; BJE6-106 at 0.5-1.0 μM)	IC50 (recombinant PKCδ; [1])	inhibition at 1 µM (MCF7 spheroids; BJE6-106 at 1 μM)	inhibition of tumor spheroid growth, Panc1 (Panc1; BJE6-106 at 0.5-1.0 μM)	inhibition at 10 µM (DU145; Homo sapiens, DU-145, rottlerin at 10 μM)	inhibition at 10 µM (MiaPaCa2; Homo sapiens, MIA PaCa-2, rottlerin at 10 μM)	IC50 (recombinant PKCδ; PKCδ IC50, in vitro kinase assay)	inhibition at 10 µM (MCF7 spheroids; rottlerin at 10 μM)	inhibition at 10 µM (Panc1; Homo sapiens, PANC-1, rottlerin at 10 μM)
approximately 1000 fold	1000-fold	CC1(C)C=Cc2cc(CCn3c4ccccc4c4ccccc43)cc(C=O)c2O1 [BJE6-106, 6-(2-(9H-carbazol-9-yl)ethyl)-2,2-dimethyl-2H-chromene-8-carbaldehyde]	> 98%	0.5 µM	> 1 µM	~100 nM	0.1 µM	> 97%	~50 nM and 50 nM	> 90%	> 99%	–	–	–	–	–
–	–	CC(=O)c1c(O)c(C)c(O)c(Cc2c(O)c3c(c(C(=O)/C=C/c4ccccc4)c2O)OC(C)(C)C=C3)c1O [rottlerin, Rottlerin, reference compound]	–	5 µM	> 10 µM	~1000 nM	5 µM	–	3000 nM	–	–	> 98%	> 97%	~5000 nM	> 90%	> 99%
